Experimental data: patent US7858825B2, “Acid and base stable diphenylmethanol derivatives and methods of use” (Colorado State University Research Foundation, priority 2007, dated 2010)

Key:
[1] = Cleavage (deprotection) of the esters 4d and of trifluoroacetate 5a; format: physicochemical
From the text: Thus, compounds of the invention enabled a wide range of organic reactions for the generation of libraries of MraY inhibitors in solution (Scheme III). Compounds of the invention, e.g., (2,6-dicholoro-4-methoxyphenyl)(2,4-dichlorophenyl)methanol, can also be used as linkers to immobilize carboxylic acids, amines, alcohols, as well as other functional groups which can, however, be cleaved by 20% TFA.
The trifluoroacetate 5a was also stable under most acidic conditions tested in Table 1 and SiO2, but could easily be cleaved by aq NH3 in THF-MeOH within 3 h to regenerate 3d in quantitative yield (Scheme 2-2).
The ester of 3d was dissolved in 20% TFA in CH2Cl2 (0.3 M) and kept for 1 h at rt. Volatiles were evaporated in vaccuo to provide the carboxylic acid and 5a. The carboxylic acid was separated from 5d by a silica gel plug (10:1, hexanes:EtOAc to 5:1, CHCl3:MeOH) or a back-extraction procedure [solvent system: EtOAc-water (for the extraction of 5d under a basic condition (NaHCO3), CHCl3-water (for the extraction of the carboxylic acid under an acidic condition (dil. HCl)].

[2] = Stability and cleavage of linker 16 esters; format: physicochemical
Protocol: One of the linkers of the invention, (2-chloro-4-methoxyphenyl)(2,4-dichlorophenyl)methanol 16 was used to immobilize carboxylic acids. The linker was stable under a Boc-deprotection conditions (TsOH.H2O/THF—CH2Cl2). In addition, unlike photolytic (350 nm, 72 h) or Pd-mediated or base-catalyzed cleavage of linkers, the esters of linker 16 was efficiently be cleaved via volatile acids such as 30% TFA/CH2Cl2 or HF.pyridine within 1 h. The progress of each step was conveniently be monitored by LC-MS after the treatment of such Brønsted acids followed by evaporation of volatiles.

| time for cleavage to regenerate 3d ([1]; aq NH3 in THF-MeOH) [h] | stability under acidic conditions ([1]; most acidic conditions tested in Table 1 and SiO2) | time for cleavage of the esters of the linker ([2]; 30% TFA/CH2Cl2 or HF.pyridine) [h] | stability of linker ([2]; Boc-deprotection conditions (TsOH.H2O/THF—CH2Cl2)) | SMILES |
| --- | --- | --- | --- | --- |
| ≤ 3 | stable |  |  | COc1cc(Cl)c(C(OC(=O)C(F)(F)F)c2ccc(Cl)cc2Cl)c(Cl)c1 (stereo not shown) [5a, (2,6-dichloro-4-methoxyphenyl)(2,4-dichlorophenyl)methyl 2,2,2-trifluoroacetate] |
|  |  | ≤ 1 | stable | COc1ccc(C(O)c2ccc(Cl)cc2Cl)c(Cl)c1 (stereo not shown) [compound 16, (2-chloro-4-methoxyphenyl)(2,4-dichlorophenyl)methanol] |
